Experimental data as given in PubChem BioAssay (NCI).
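GI50 is the concentration that inhibits growth by half. TGI: total growth inhibition.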

Tests used:
Assay in all cases: DTP human tumour cell line panel, 384-well format
RXF 393 renal = tested on: RXF 393 renal
MCF7 breast = tested on: MCF7 breast
A549 NSCLC = tested on: A549 NSCLC
NCI-H23 lung = tested on: NCI-H23 lung
SF-295 CNS = tested on: SF-295 CNS
MDA-MB-468 breast = tested on: MDA-MB-468 breast
EKVX NSCLC = tested on: EKVX NSCLC
OVCAR-3 ovarian = tested on: OVCAR-3 ovarian
SR leukemia = tested on: SR leukemia
MALME-3M melanoma = tested on: MALME-3M melanoma
MDA-MB-231 breast = tested on: MDA-MB-231 breast
PC-3 prostate = tested on: PC-3 prostate
DU-145 prostate = tested on: DU-145 prostate
M14 melanoma = tested on: M14 melanoma
SNB-75 CNS = tested on: SNB-75 CNS
HCT-15 colon = tested on: HCT-15 colon
OVCAR-5 ovarian = tested on: OVCAR-5 ovarian
SF-268 CNS = tested on: SF-268 CNS
NCI/ADR-RES ovarian = tested on: NCI/ADR-RES ovarian
IGROV1 ovarian = tested on: IGROV1 ovarian
CAKI-1 renal = tested on: CAKI-1 renal
HOP-62 NSCLC = tested on: HOP-62 NSCLC
HT29 colon = tested on: HT29 colon
MDA-MB-435 melanoma = tested on: MDA-MB-435 melanoma
NCI-H522 lung = tested on: NCI-H522 lung
ACHN renal = tested on: ACHN renal
UACC-62 melanoma = tested on: UACC-62 melanoma
TK-10 renal = tested on: TK-10 renal
SK-OV-3 ovarian = tested on: SK-OV-3 ovarian
HL-60(TB) leukemia = tested on: HL-60(TB) leukemia
K-562 leukemia = tested on: K-562 leukemia
HS 578T breast = tested on: HS 578T breast
OVCAR-4 ovarian = tested on: OVCAR-4 ovarian
HOP-92 NSCLC = tested on: HOP-92 NSCLC
SK-MEL-28 melanoma = tested on: SK-MEL-28 melanoma
NCI-H460 NSCLC = tested on: NCI-H460 NSCLC
COLO 205 colon = tested on: COLO 205 colon
MOLT-4 leukemia = tested on: MOLT-4 leukemia
T-47D breast = tested on: T-47D breast
BT-549 breast = tested on: BT-549 breast
SN12C renal = tested on: SN12C renal
NCI-H322M lung = tested on: NCI-H322M lung
A498 renal = tested on: A498 renal
KM12 colon = tested on: KM12 colon
SNB-19 CNS = tested on: SNB-19 CNS
SK-MEL-5 melanoma = tested on: SK-MEL-5 melanoma
786-0 renal = tested on: 786-0 renal
SW-620 colon = tested on: SW-620 colon
CCRF-CEM leukemia = tested on: CCRF-CEM leukemia
LOX IMVI melanoma = tested on: LOX IMVI melanoma
OVCAR-8 ovarian = tested on: OVCAR-8 ovarian
RPMI-8226 leukemia = tested on: RPMI-8226 leukemia
UO-31 renal = tested on: UO-31 renal
SF-539 CNS = tested on: SF-539 CNS
HCC-2998 colon = tested on: HCC-2998 colon

For `O=C(NCCCc1cn[nH]c1)c1ccc(-c2ccncc2)c(C#Cc2ccc(F)cc2)c1`, the GI50 (RXF 393 renal) was less than 10 nM, the TGI (RXF 393 renal) was less than 10 nM and the GI50 (MCF7 breast) was 13 nM. For the same compound, the TGI (MCF7 breast) was 26.9 nM, the GI50 (A549 NSCLC) was less than 10 nM and the TGI (A549 NSCLC) was less than 10 nM. It also gave a GI50 (NCI-H23 lung) of less than 10 nM, a TGI (NCI-H23 lung) of less than 10 nM and a GI50 (SF-295 CNS) of less than 10 nM. It also gave a TGI (SF-295 CNS) of less than 10 nM, a GI50 (MDA-MB-468 breast) of less than 10 nM and a TGI (MDA-MB-468 breast) of less than 10 nM. It also gave a GI50 (EKVX NSCLC) of less than 10 nM, a TGI (EKVX NSCLC) of less than 10 nM and a GI50 (OVCAR-3 ovarian) of less than 10 nM. For the same compound, the TGI (OVCAR-3 ovarian) was less than 10 nM, the GI50 (SR leukemia) was less than 10 nM and the TGI (SR leukemia) was less than 10 nM. For the same compound, the GI50 (MALME-3M melanoma) was less than 10 nM, the TGI (MALME-3M melanoma) was less than 10 nM and the GI50 (MDA-MB-231 breast) was less than 10 nM. The TGI (MDA-MB-231 breast) was less than 10 nM, the GI50 (PC-3 prostate) was less than 10 nM and the TGI (PC-3 prostate) was less than 10 nM. The GI50 (DU-145 prostate) was less than 10 nM, the TGI (DU-145 prostate) was less than 10 nM and the GI50 (M14 melanoma) was less than 10 nM. The TGI (M14 melanoma) was less than 10 nM, the GI50 (SNB-75 CNS) was less than 10 nM and the TGI (SNB-75 CNS) was less than 10 nM. For the same compound, the GI50 (HCT-15 colon) was less than 10 nM, the TGI (HCT-15 colon) was less than 10 nM and the GI50 (OVCAR-5 ovarian) was less than 10 nM. It also gave a TGI (OVCAR-5 ovarian) of less than 10 nM, a GI50 (SF-268 CNS) of less than 10 nM and a TGI (SF-268 CNS) of less than 10 nM. It also gave a GI50 (NCI/ADR-RES ovarian) of less than 10 nM, a TGI (NCI/ADR-RES ovarian) of less than 10 nM and a GI50 (IGROV1 ovarian) of less than 10 nM. It also gave a TGI (IGROV1 ovarian) of less than 10 nM, a GI50 (CAKI-1 renal) of less than 10 nM and a TGI (CAKI-1 renal) of less than 10 nM. The GI50 (HOP-62 NSCLC) was less than 10 nM, the TGI (HOP-62 NSCLC) was less than 10 nM and the GI50 (HT29 colon) was less than 10 nM. The TGI (HT29 colon) was less than 10 nM, the GI50 (MDA-MB-435 melanoma) was less than 10 nM and the TGI (MDA-MB-435 melanoma) was less than 10 nM. It also gave a GI50 (NCI-H522 lung) of less than 10 nM, a TGI (NCI-H522 lung) of less than 10 nM and a GI50 (ACHN renal) of less than 10 nM. It also gave a TGI (ACHN renal) of less than 10 nM, a GI50 (UACC-62 melanoma) of less than 10 nM and a TGI (UACC-62 melanoma) of less than 10 nM. The GI50 (TK-10 renal) was less than 10 nM, the TGI (TK-10 renal) was less than 10 nM and the GI50 (SK-OV-3 ovarian) was less than 10 nM. For the same compound, the TGI (SK-OV-3 ovarian) was less than 10 nM, the GI50 (HL-60(TB) leukemia) was less than 10 nM and the TGI (HL-60(TB) leukemia) was less than 10 nM. The GI50 (K-562 leukemia) was less than 10 nM, the TGI (K-562 leukemia) was less than 10 nM and the GI50 (HS 578T breast) was less than 10 nM. The TGI (HS 578T breast) was less than 10 nM, the GI50 (OVCAR-4 ovarian) was less than 10 nM and the TGI (OVCAR-4 ovarian) was less than 10 nM. For the same compound, the GI50 (HOP-92 NSCLC) was less than 10 nM, the TGI (HOP-92 NSCLC) was less than 10 nM and the GI50 (SK-MEL-28 melanoma) was less than 10 nM. The TGI (SK-MEL-28 melanoma) was less than 10 nM, the GI50 (NCI-H460 NSCLC) was less than 10 nM and the TGI (NCI-H460 NSCLC) was 13.5 nM. For the same compound, the GI50 (COLO 205 colon) was less than 10 nM, the TGI (COLO 205 colon) was less than 10 nM and the GI50 (MOLT-4 leukemia) was less than 10 nM. The TGI (MOLT-4 leukemia) was less than 10 nM, the GI50 (T-47D breast) was less than 10 nM and the TGI (T-47D breast) was less than 10 nM. For the same compound, the GI50 (BT-549 breast) was less than 10 nM, the TGI (BT-549 breast) was less than 10 nM and the GI50 (SN12C renal) was less than 10 nM. It also gave a TGI (SN12C renal) of less than 10 nM, a GI50 (NCI-H322M lung) of less than 10 nM and a TGI (NCI-H322M lung) of less than 10 nM. The GI50 (A498 renal) was less than 10 nM, the TGI (A498 renal) was 252 nM and the GI50 (KM12 colon) was less than 10 nM. The TGI (KM12 colon) was less than 10 nM, the GI50 (SNB-19 CNS) was less than 10 nM and the TGI (SNB-19 CNS) was less than 10 nM. For the same compound, the GI50 (SK-MEL-5 melanoma) was less than 10 nM, the TGI (SK-MEL-5 melanoma) was less than 10 nM and the GI50 ([…]-0 renal) was less than 10 nM. The TGI (786-0 renal) was less than 10 nM, the GI50 (SW-620 colon) was less than 10 nM and the TGI (SW-620 colon) was less than 10 nM. The GI50 (CCRF-CEM leukemia) was less than 10 nM, the TGI (CCRF-CEM leukemia) was less than 10 nM and the GI50 (LOX IMVI melanoma) was less than 10 nM. It also gave a TGI (LOX IMVI melanoma) of 15.6 nM, a GI50 (OVCAR-8 ovarian) of less than 10 nM and a TGI (OVCAR-8 ovarian) of less than 10 nM. The GI50 (RPMI-8226 leukemia) was less than 10 nM, the TGI (RPMI-8226 leukemia) was less than 10 nM and the GI50 (UO-31 renal) was less than 10 nM. It also gave a TGI (UO-31 renal) of less than 10 nM, a GI50 (SF-539 CNS) of less than 10 nM and a TGI (SF-539 CNS) of less than 10 nM. For the same compound, the GI50 (HCC-2998 colon) was less than 10 nM and the TGI (HCC-2998 colon) was less than 10 nM.
